Reference: patent US11235015B2, “Antiviral Traditional Chinese Medicine composition and preparation method and use i'hereof” (priority 2017, dated 2022)
In brackets after ≈: the same amount, converted by molar mass. Where a name gives a salt, the structure may show the parent alone.

Assays:
MDCK cells = assay: Toxicity of the tested substance on MDCK cells, MTT method; details: OD 570 nm, 3 days
[1] = test system: avian influenza virus H9N2; assay: microbe, parasite or virus in culture; format: cell-based; details: H9N2, MDCK; for OD value (A): MTT; for inhibition at 39.06 µg/mL / inhibition at 78.12 µg/mL / inhibition at 156.25 µg/mL / IC50: Influenza A virus; for inhibition at 39.06 µg/mL / inhibition at 78.12 µg/mL / inhibition at 156.25 µg/mL: H9N2; for IC50: H9N2 virus, MDCK cells
[2] = test system: avian influenza virus H7N7; assay: microbe, parasite or virus in culture; format: cell-based; details: H7N7, MDCK; for OD value (A): MTT; for inhibition at 39.06 µg/mL / inhibition at 78.12 µg/mL / inhibition at 156.25 µg/mL / IC50: unidentified influenza virus; for inhibition at 39.06 µg/mL / inhibition at 78.12 µg/mL / inhibition at 156.25 µg/mL: H7N7; for IC50: H7N7 virus, MDCK cells
[3] = test system: dry yeast induced fever in rats; assay: Antipyretic effect, dry yeast induced fever in rats, rectal temperature; format: in vivo, SD rats
[4] = 39.06 μg/ml, first of 2 experiments
[5] = 39.06 μg/ml, second of 2 experiments
[6] = 78.12 μg/ml, first of 2 experiments
[7] = 78.12 μg/ml, second of 2 experiments
[8] = 156.25 μg/ml, first of 2 experiments
[9] = 156.25 μg/ml, second of 2 experiments

## NC12CC3CC(CC(C3)C1)C2 [amantadine]
MDCK cells; 39.06 μg/ml
  OD value (A): 1.20 ± 0.04 A
MDCK cells; 78.12 μg/ml
  OD value (A): 1.05 ± 0.02 A
MDCK cells; 156.25 μg/ml
  OD value (A): 0.96 ± 0.05 A
[1]; [4]
  OD value (A): 0.37 ± 0.02 A
  inhibition at 39.06 µg/mL: 34%
[1]; [5]
  OD value (A): 0.32 ± 0.03 A
  inhibition at 39.06 µg/mL: 27%
[1]; [6]
  OD value (A): 0.64 ± 0.05 A
  inhibition at 78.12 µg/mL: 65%
[1]; [7]
  OD value (A): 0.46 ± 0.03 A
  inhibition at 78.12 µg/mL: 42%
[1]; [8]
  OD value (A): 0.71 ± 0.07 A
  inhibition at 156.25 µg/mL: 72%
[1]; [9]
  OD value (A): 0.68 ± 0.15 A
  inhibition at 156.25 µg/mL: 66%
[1]; first of 2 experiments
  IC50: 63 µg/mL (≈ 417 µM)
[1]; second of 2 experiments
  IC50: 66 µg/mL (≈ 436 µM)

## NC12CC3CC(CC(C3)C1)C2 [Adamantanamine, amantadine hydrochloride]
[2]; [4]
  OD value (A): 0.55 ± 0.04 A
  inhibition at 39.06 µg/mL: 36%
[2]; [5]
  OD value (A): 0.57 ± 0.07 A
  inhibition at 39.06 µg/mL: 38%
[2]; [6]
  OD value (A): 0.86 ± 0.08 A
  inhibition at 78.12 µg/mL: 60%
[2]; [7]
  OD value (A): 0.81 ± 0.04 A
  inhibition at 78.12 µg/mL: 55%
[2]; [8]
  OD value (A): 1.01 ± 0.07 A
  inhibition at 156.25 µg/mL: 71%
[2]; [9]
  OD value (A): 0.98 ± 0.09 A
  inhibition at 156.25 µg/mL: 68%
[2]; first of 2 experiments
  IC50: 62 µg/mL
[2]; second of 2 experiments
  IC50: 66 µg/mL

## CC(=O)Oc1ccccc1C(=O)O [Aspirin]
[3]; 100 mg/kg by gavage 0.5 h and […] after pyrogen, baseline value, 1 h before the injection of pyrogen, n = 5
  rectal temperature: 37.8 °C
[3]; 100 mg/kg by gavage, 1 h after the injection of pyrogen
  rectal temperature: 38.0 °C
[3]; 100 mg/kg by gavage, 2 h after the injection of pyrogen
  rectal temperature: 37.5 °C
[3]; 100 mg/kg by gavage, 3 h after the injection of pyrogen
  rectal temperature: 37.7 °C
[3]; 100 mg/kg by gavage, 4 h after the injection of pyrogen
  rectal temperature: 37.8 °C
[3]; 100 mg/kg by gavage, 5 h after the injection of pyrogen
  rectal temperature: 38.1 °C
[3]; 100 mg/kg by gavage, 6 h after the injection of pyrogen
  rectal temperature: 38.1 °C
[3]; 100 mg/kg by gavage, 7 h after the injection of pyrogen
  rectal temperature: 38.3 °C
[3]; 100 mg/kg by gavage, 8 h after the injection of pyrogen
  rectal temperature: 38.5 °C
[3]; 100 mg/kg by gavage, 9 h after the injection of pyrogen
  rectal temperature: 38.8 °C
[3]; 100 mg·kg^−1, starting from […] after the injection of the pyrogen
  time for which the effect of reducing the body temperature was maintained: 4 h
